Source: PubChem BioAssay (NCI)
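Following 48 hours of exposure in 96-well plates, responses at five concentrations were used to interpolate endpoints linearly. TGI is the concentration that stops growth completely.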

What was measured:
Assay in all cases: NCI tumour cell line growth inhibition, 48 h
DMS 114 small cell lung = system: DMS 114 small cell lung
ACHN renal = system: ACHN renal
NCI-H226 lung = system: NCI-H226 lung
SF-295 CNS = system: SF-295 CNS
UACC-257 melanoma = system: UACC-257 melanoma
SK-OV-3 ovarian = system: SK-OV-3 ovarian
SR leukemia = system: SR leukemia
MALME-3M melanoma = system: MALME-3M melanoma
LXFL 529 NSCLC = system: LXFL 529 NSCLC
OVCAR-5 ovarian = system: OVCAR-5 ovarian
EKVX NSCLC = system: EKVX NSCLC
U251 CNS = system: U251 CNS
IGROV1 ovarian = system: IGROV1 ovarian
KM12 colon = system: KM12 colon
SF-539 CNS = system: SF-539 CNS
HT29 colon = system: HT29 colon
HCT-15 colon = system: HCT-15 colon
K-562 leukemia = system: K-562 leukemia
SK-MEL-28 melanoma = system: SK-MEL-28 melanoma
HOP-62 NSCLC = system: HOP-62 NSCLC
MOLT-4 leukemia = system: MOLT-4 leukemia
RXF-631 renal = system: RXF-631 renal
NCI-H23 lung = system: NCI-H23 lung
SN12C renal = system: SN12C renal
SW-620 colon = system: SW-620 colon
XF 498 CNS = system: XF 498 CNS
HCT-116 colon = system: HCT-116 colon
HL-60(TB) leukemia = system: HL-60(TB) leukemia
SF-268 CNS = system: SF-268 CNS
M14 melanoma = system: M14 melanoma
KM20L2 colon = system: KM20L2 colon
SNB-75 CNS = system: SNB-75 CNS
A498 renal = system: A498 renal
LOX IMVI melanoma = system: LOX IMVI melanoma
A549 NSCLC = system: A549 NSCLC
DLD-1 colon = system: DLD-1 colon
RXF 393 renal = system: RXF 393 renal
TK-10 renal = system: TK-10 renal
OVCAR-3 ovarian = system: OVCAR-3 ovarian
UO-31 renal = system: UO-31 renal
SNB-19 CNS = system: SNB-19 CNS
OVCAR-4 ovarian = system: OVCAR-4 ovarian
SNB-78 CNS = system: SNB-78 CNS
UACC-62 melanoma = system: UACC-62 melanoma
NCI-H460 lung = system: NCI-H460 lung
HCC-2998 colon = system: HCC-2998 colon
RPMI-8226 leukemia = system: RPMI-8226 leukemia
CAKI-1 renal = system: CAKI-1 renal
OVCAR-8 ovarian = system: OVCAR-8 ovarian
SK-MEL-2 melanoma = system: SK-MEL-2 melanoma
SK-MEL-5 melanoma = system: SK-MEL-5 melanoma
786-0 renal = system: 786-0 renal
NCI-H522 lung = system: NCI-H522 lung
HOP-92 NSCLC = system: HOP-92 NSCLC
DMS 273 small cell lung = system: DMS 273 small cell lung
HOP-18 NSCLC = system: HOP-18 NSCLC
CCRF-CEM leukemia = system: CCRF-CEM leukemia
M19-MEL melanoma = system: M19-MEL melanoma
COLO 205 colon = system: COLO 205 colon

Measured: TGI

O=C1NC2(CCCCC2)C2CCCCCC12 (configuration not stated)
> 100 µM: DMS 114 small cell lung | ACHN renal | NCI-H226 lung | SF-295 CNS | UACC-257 melanoma | SK-OV-3 ovarian | SR leukemia | MALME-3M melanoma | LXFL 529 NSCLC | OVCAR-5 ovarian | EKVX NSCLC | U251 CNS | IGROV1 ovarian | KM12 colon | SF-539 CNS | HT29 colon | HCT-15 colon | K-562 leukemia | SK-MEL-28 melanoma | HOP-62 NSCLC | MOLT-4 leukemia | RXF-631 renal | NCI-H23 lung | SN12C renal | SW-620 colon | XF 498 CNS | HCT-116 colon | HL-60(TB) leukemia | SF-268 CNS | M14 melanoma | KM20L2 colon | SNB-75 CNS | A498 renal | LOX IMVI melanoma | A549 NSCLC | DLD-1 colon | RXF 393 renal | TK-10 renal | OVCAR-3 ovarian | UO-31 renal | SNB-19 CNS | OVCAR-4 ovarian | SNB-78 CNS | UACC-62 melanoma | NCI-H460 lung | HCC-2998 colon

O=C(C(=O)N1CC2C=CC1CC2)c1c[nH]c2ccccc12 (configuration not stated)
> 100 µM: DMS 114 small cell lung | ACHN renal | NCI-H226 lung | SF-295 CNS | UACC-257 melanoma | SK-OV-3 ovarian | SR leukemia | MALME-3M melanoma | LXFL 529 NSCLC | OVCAR-5 ovarian | U251 CNS | IGROV1 ovarian | KM12 colon | SF-539 CNS | HT29 colon | RPMI-8226 leukemia | CAKI-1 renal | OVCAR-8 ovarian | HCT-15 colon | K-562 leukemia | SK-MEL-2 melanoma | HOP-62 NSCLC | SK-MEL-5 melanoma | MOLT-4 leukemia | RXF-631 renal | SN12C renal | SW-620 colon | 786-0 renal | HCT-116 colon | HL-60(TB) leukemia | SF-268 CNS | M14 melanoma | KM20L2 colon | NCI-H522 lung | HOP-92 NSCLC | SNB-75 CNS | DMS 273 small cell lung | A498 renal | LOX IMVI melanoma | HOP-18 NSCLC | A549 NSCLC | DLD-1 colon | RXF 393 renal | TK-10 renal | CCRF-CEM leukemia | UO-31 renal | SNB-19 CNS | OVCAR-4 ovarian | M19-MEL melanoma | COLO 205 colon | SNB-78 CNS | UACC-62 melanoma | NCI-H460 lung | HCC-2998 colon

CC(=O)O[C@H]1CCC(C)=CCC[C@@]2(C)C(CC[C@@H]2[C@@H](C)/C=C/C(C)C)c2ccc(cc2C(=O)O)C1 (some centres not stated)
16.5 µM: KM12 colon
8.43 µM: SF-295 CNS | OVCAR-5 ovarian
8.53 µM: IGROV1 ovarian
7.49 µM: HOP-62 NSCLC
11.9 µM: K-562 leukemia | HCT-116 colon
13.3 µM: HOP-92 NSCLC | DMS 273 small cell lung
6.47 µM: NCI-H522 lung
10.8 µM: NCI-H460 lung
14.1 µM: KM20L2 colon
7.61 µM: SR leukemia
7.67 µM: RXF 393 renal
20.3 µM: M14 melanoma
15.5 µM: ACHN renal
16.9 µM: SK-MEL-28 melanoma
8.25 µM: U251 CNS
13.7 µM: TK-10 renal
14.8 µM: UACC-257 melanoma
3.86 µM: HL-60(TB) leukemia
3.79 µM: UACC-62 melanoma
14 µM: OVCAR-8 ovarian | M19-MEL melanoma
13.8 µM: SK-OV-3 ovarian
4.79 µM: MOLT-4 leukemia
13 µM: SNB-19 CNS
6.63 µM: NCI-H23 lung
13.6 µM: HT29 colon
24.5 µM: RXF-631 renal
12.2 µM: CCRF-CEM leukemia
9.82 µM: UO-31 renal
30.5 µM: EKVX NSCLC
19.8 µM: A498 renal
10.1 µM: SNB-78 CNS

O=C(OCC1CO1)c1cccs1 (configuration not stated)
36.9 µM: NCI-H522 lung
> 100 µM: DMS 114 small cell lung | ACHN renal | SF-295 CNS | UACC-257 melanoma | SK-OV-3 ovarian | MALME-3M melanoma | LXFL 529 NSCLC | OVCAR-5 ovarian | EKVX NSCLC | IGROV1 ovarian | KM12 colon | HT29 colon | RPMI-8226 leukemia | CAKI-1 renal | OVCAR-8 ovarian | HCT-15 colon | K-562 leukemia | SK-MEL-28 melanoma | SK-MEL-2 melanoma | HOP-62 NSCLC | SK-MEL-5 melanoma | MOLT-4 leukemia | RXF-631 renal | NCI-H23 lung | SN12C renal | SW-620 colon | XF 498 CNS | 786-0 renal | HL-60(TB) leukemia | SF-268 CNS | M14 melanoma | KM20L2 colon | HOP-92 NSCLC | SNB-75 CNS | DMS 273 small cell lung | LOX IMVI melanoma | A549 NSCLC | DLD-1 colon | RXF 393 renal | TK-10 renal | CCRF-CEM leukemia | OVCAR-3 ovarian | UO-31 renal | SNB-19 CNS | OVCAR-4 ovarian | M19-MEL melanoma | COLO 205 colon | SNB-78 CNS | UACC-62 melanoma | NCI-H460 lung | HCC-2998 colon
